Measured values reported in patent EP0994107A1, “5-Arylisoxazol-4-yl-substituted 2-amino carboxylic acid compounds” (H. LUNDBECK A/S, priority 1993, dated 1995).

Key:
[1] = system: AMPA; experiment: Cortical wedge model (electrophysiology, rat cortical wedge preparation), AMPA subtype; type: cell-based; conditions: receptor subtype AMPA; for EC50: agonist; for Ki: starred in IC50 column (*) = Ki value)
Procedure: (§1) The Cortical wedge model is a test in which slices of rat brain is examined in vitro in order to quantify the effect of ligands at the Glu-receptors and evaluate the pharmacological profile of the ligands (i.e. agonist/antagonist properties). The test was performed as described by Harrison, N.L. and Simmonds, M.A. Br.J. Pharmacol. 1985, 84, 381-391 as modified according to Wheatley, P.L. Br.J.Pharmacol. 1986, 87, 159P.

[2] = biological target: AMPA receptors; experiment: [3H]AMPA binding (displacement of [3H]AMPA, in the presence of KSCN); conditions: only high affinity binding sites labelled
Procedure: In this test the affinity of a drug for AMPA receptors is determined by measuring the ability to displace [^3H]AMPA from AMPA receptors.
The test was carried out in accordance with a modified version of the method of Honoré, T. and Nielsen, M., Neurosci.Lett. 1985, 54, 27-32. The test was carried out in the presence of KSCN. This means that only the [^3H]AMPA high affinity binding sites were labelled.
The membrane preparations used were obtained in accordance with the method of Ransom, R.W. and Stec, J.Neurochem. 1988, 51, 830-836.

[3] = biological target: NMDA-receptor; experiment: [3H]CPP binding (displacement of [3H]CPP from the transmitter binding site)
[4] = system: NMDA; experiment: Cortical wedge model (electrophysiology, rat cortical wedge preparation), NMDA subtype; type: cell-based; conditions: receptor subtype NMDA; for IC50: antagonist; for EC50: agonist
Procedure: as §1

[5] = system: KAIN; experiment: Cortical wedge model (electrophysiology, rat cortical wedge preparation), KAIN subtype; type: cell-based; conditions: receptor subtype KAIN
Procedure: as §1

SMILES	Profile [1]	EC50 [1] [µM]	IC50 [2] [µM]	IC50 [3] [µM]	Profile [4]	also measured
Cc1ccc(-c2onc(O)c2CC(N)C(=O)O)s1 (racemic) [Compound 1f, (RS)-2-Amino-3-[3-hydroxy-5-(5-methyl-2-thienyl)isoxazol-4-yl]propionic Acid]	Agonist	130				
NC(Cc1c(O)noc1-c1ccccn1)C(=O)O (racemic) [Compound 13a, (RS)-2-Amino-3-[3-hydroxy-5-(2-pyridyl)isoxazol-4-yl)propionic Acid]	Agonist	55				
NC(Cc1c(O)noc1-c1ccsc1)C(=O)O (racemic) [Compound 1b, (RS)-2-Amino-3-[3-hydroxy-5-(3-thienyl)isoxazol-4-yl]propionic Acid]	Agonist	43	3.5	> 100		
NC(CCc1c(O)noc1-c1cccs1)C(=O)O (racemic) [Compound 4c, (RS)-2-Amino-4-[3-hydroxy-5-(2-thienyl)isoxazol-4-yl]butanoic Acid]			> 100	0.19	Antagonist	IC50 [4]: 2.5 µM
NC(CCc1c(O)noc1-c1ccsc1)C(=O)O (racemic) [Compound 4d, (RS)-2-Amino-4-[3-hydroxy-5-(3-thienyl)isoxazol-4-yl]butanoic Acid]			> 100	0.7	Antagonist	IC50 [4]: 8.6 µM
NC(C(=O)O)c1c(O)noc1-c1ccccc1 (racemic) [Compound 2a, (RS)-2-Amino-2-(3-hydroxy-5-phenylisoxazol-4-yl)acetic Acid]			43	7.5	Part. Ago.#	EC50 [4]: 300 µM
NC(Cc1c(O)noc1-c1cccs1)C(=O)O (single isomer, unassigned; (-)) [Compound 15a, (-)-2-Amino-3-[3-hydroxy-5-(2-thienyl)isoxazol-4-yl]propionic Acid]	Antagonist					IC50 ([1]; antagonist): 300 µM
NC(Cc1c(O)noc1-c1ccncc1)C(=O)O (racemic) [Compound 13b, (RS)-2-Amino-3-[3-hydroxy-5-(4-pyridyl)isoxazol-4-yl]propionic Acid]	Agonist	7.4				
NC(CCc1c(O)noc1-c1ccc(F)cc1)C(=O)O (racemic) [Compound 4a, (RS)-2-Amino-4-[5-(4-fluorophenyl)-3-hydroxyisoxazol-4-yl]butanoic Acid]			> 100	0.76	Antagonist	IC50 [4]: 9 µM
Nc1c(NCc2c(O)noc2-c2ccccc2)c(=O)c1=O [Compound 5a, 4-[(2-Amino-3,4-dioxo-1-cyclobuten-1-yl)aminomethyl]-3-hydroxy-5-phenylisoxazole]	Antagonist		33	22	Antagonist	Profile [5]: Antagonist
NC(Cc1c(O)noc1-c1ccc(F)cc1)C(=O)O (single isomer, unassigned; (+)) [Compound 14d, (+)-2-Amino-3-[5-(4-fluorophenyl)-3-hydroxyisoxazol-4-yl]propionic Acid]	Agonist	170				
NC(CCc1c(O)noc1-c1ccccc1)C(=O)O (racemic) [Compound 4b, (RS)-2-Amino-4-(3-hydroxy-5-phenylisoxazol-4-yl)butanoic Acid]			> 100	2.5	Antagonist	IC50 [4]: 18 µM
NC(Cc1c(O)noc1-c1cccs1)C(=O)O (racemic) [Compound 1a, (RS)-2-Amino-3-[3-hydroxy-5-(2-thienyl)isoxazol-4-yl]propionic Acid]	Agonist	5.8	0.28	> 100		
Nc1c(NCc2c(O)noc2-c2cccs2)c(=O)c1=O [Compound 5b, 4-[(2-Amino-3,4-dioxo-1-cyclobuten-1-yl)aminomethyl]-3-hydroxy-5-(2-thienyl)isoxazole]			38	6.9	Antagonist	IC50 [4]: 30 µM
NC(C(=O)O)c1c(O)noc1-c1cccs1 (racemic) [Compound 2b, (RS)-2-Amino-2-[3-hydroxy-5-(2-thienyl)isoxazol-4-yl]acetic Acid]					Agonist	EC50 [4]: 30 µM
NC(CCCc1c(O)noc1-c1ccccc1)C(=O)O (racemic) [Compound 3a, (RS)-2-Amino-5-(3-hydroxy-5-phenylisoxazol-4-yl)pentanoic Acid]	Agonist	240	9	21		
Nc1c(NCc2c(O)noc2-c2ccsc2)c(=O)c1=O [Compound 5c, 4-[(2-Amino-3,4-dioxo-1-cyclobuten-1-yl)aminomethyl]-3-hydroxy-5-(3-thienyl)isoxazole]	Antagonist				Antagonist	
NC(Cc1c(O)noc1-c1cccs1)C(=O)O (single isomer, unassigned; (+)) [Compound 15b, (+)-2-Amino-3-[3-hydroxy-5-(2-thienyl)isoxazol-4-yl]propionic acid]	Agonist	2.7				
N[C@@H](Cc1c(O)noc1-c1ccccc1)C(=O)O [Compound 14a, (S)-(+)-2-Amino-3-(3-hydroxy-5-phenylisoxazol-4-yl)propionic acid]	Agonist	230	5.5			
N[C@H](Cc1c(O)noc1-c1ccccc1)C(=O)O [Compound 14b, (R)-(-)-2-Amino-3-(3-hydroxy-5-phenylisoxazol-4-yl)propionic acid]	Antagonist					Ki [1]: 290 µM; Profile [5]: Antagonist; Ki ([5]; starred in IC50 column (*) = Ki value)): 950 µM
NC(Cc1c(O)noc1-c1ccc(F)cc1)C(=O)O (single isomer, unassigned; (-)) [Compound 14c, (-)-2-Amino-3-[5-(4-fluorophenyl)-3-hydroxyisoxazol-4-yl]propionic Acid]	Antagonist					Ki [1]: 337 µM
